Where a name gives a salt, the structure may show the parent alone. Read-outs that look alike come from different tables or passages of the source.
System: BDNF-induced nuclear Arc expression in primary cortical neurons
Assay: Chemogenomic screen: high-content image-based assay of BDNF-induced nuclear Arc expression (96-well)
Type: cell-based, mouse
Outline: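 Nuclear Arc immunofluorescence is quantified automatically within an acetyl-H3K9-defined nuclear mask from ×40 images. Cultures are DIV13 mouse forebrain cortical neurons seeded at 30,000 per well and exposed to BDNF plus compound at a final 16.7 µM, with triplicate biological replicates.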

[1] = chemogenomic (SMART) screen, BDNF-induced nuclear Arc expression, primary cortical neurons, BDNF control 19.5
[2] = nuclear Arc-positive cells relative to DMSO + BDNF control, negative values = decrease
[3] = BDNF-induced nuclear Arc expression, primary cortical neurons, chemogenomic screen

## NC(=O)c1cn(Cc2c(F)cccc2F)nn1 [Rufinamide]
[1]
  Percentage of cell with nuclear Arc immunostaining above 2σ threshold: 20.3%
[2]
  Fold-change — Normalized to DMSO control (BDNF): 1.0 fold

## COC1=CC(=O)O[C@@H](/C=C/c2ccc3c(c2)OCO3)C1 [Kavahin]
  Percentage of cell with nuclear Arc immunostaining above 2σ threshold: 36.5%
[2]
  Fold-change — Normalized to DMSO control (BDNF): 1.9 fold

## O=C1NCCN1CCN1CCC(c2cn(-c3ccc(F)cc3)c3ccc(Cl)cc23)CC1 [Sertindole]
[3]
  Percentage of cell with nuclear Arc immunostaining above 2σ threshold: 0.18%

## O=C(O)c1ccc(O)c2ncccc12 [IOX1]
[1]
  Percentage of cell with nuclear Arc immunostaining above 2σ threshold: 44.2%
[2]
  Fold-change — Normalized to DMSO control (BDNF): 2.3 fold

## CN(C)CCC=C1c2ccccc2COc2ccccc21 [Doxepin]
[3]
  Percentage of cell with nuclear Arc immunostaining above 2σ threshold: 10.2%

## COc1ccc2c(c1)[C@]13CCCC[C@@H]1[C@H](C2)N(C)CC3 [Dextromethorphan]
[1]
  Percentage of cell with nuclear Arc immunostaining above 2σ threshold: 19.7%
[2]
  Fold-change — Normalized to DMSO control (BDNF): 1.0 fold

## Cc1ncc(CSSCc2cnc(C)c(O)c2CO)c(CO)c1O [Pyrithioxine]
[1]
  Percentage of cell with nuclear Arc immunostaining above 2σ threshold: 21.3%
[2]
  Fold-change — Normalized to DMSO control (BDNF): 1.1 fold

## CC1(C)O[C@@H]2[C@@H](CO[C@@]3(COS(N)(=O)=O)OC(C)(C)O[C@@H]23)O1 [Topiramate]
[3]
  Percentage of cell with nuclear Arc immunostaining above 2σ threshold: 8.8%

## N=C(N)NC(=O)Cc1c(Cl)cccc1Cl [Guanfacine hydrochloride]
[1]
  Percentage of cell with nuclear Arc immunostaining above 2σ threshold: 20.9%
[2]
  Fold-change — Normalized to DMSO control (BDNF): 1.1 fold

## O=c1c(-c2ccc(O)cc2)coc2cc(O)cc(O)c12 [Genistein]
[1]
  Percentage of cell with nuclear Arc immunostaining above 2σ threshold: 31.7%
[2]
  Fold-change — Normalized to DMSO control (BDNF): 1.6 fold

## CN1CCC[C@@H]1Cc1c[nH]c2ccc(CCS(=O)(=O)c3ccccc3)cc12 [Eletriptan]
[3]
  Percentage of cell with nuclear Arc immunostaining above 2σ threshold: 3.7%

## Cc1ccc(Sc2ccccc2N2CCNCC2)c(C)c1 [Vortioxetine]
[3]
  Percentage of cell with nuclear Arc immunostaining above 2σ threshold: 0.0%

## NC12CC3CC(CC(C3)C1)C2 [Amantadine]
[1]
  Percentage of cell with nuclear Arc immunostaining above 2σ threshold: 32.9%
[2]
  Fold-change — Normalized to DMSO control (BDNF): 1.7 fold

## CCCC(CCC)C(N)=O [Valpromide]
[1]
  Percentage of cell with nuclear Arc immunostaining above 2σ threshold: 19.8%
[2]
  Fold-change — Normalized to DMSO control (BDNF): 1.0 fold

## COc1cc2c(NC3CCN(C4CCCCC4)CC3)nc(N3CCCN(C(C)C)CC3)nc2cc1OCCCN1CCCCC1 [UNC 0646]
[3]
  Percentage of cell with nuclear Arc immunostaining above 2σ threshold: 5.2%
Nuclear Arc-positive cells relative to DMSO control (BDNF), negative = decrease
  Fold-change — Normalized to DMSO control (BDNF): -3.7 fold

## CCSc1ccc2c(c1)N(CCCN1CCN(C)CC1)c1ccccc1S2 [Thiethylperazine]
[3]
  Percentage of cell with nuclear Arc immunostaining above 2σ threshold: 0.529%

## NC[C@H](CC(=O)O)c1ccc(Cl)cc1 [(R)-Baclofen]
[1]
  Percentage of cell with nuclear Arc immunostaining above 2σ threshold: 31.8%
[2]
  Fold-change — Normalized to DMSO control (BDNF): 1.6 fold

## OC(CCN1CCCCC1)(c1ccccc1)C1CC2C=CC1C2 (centres unmarked) [Biperiden]
[1]
  Percentage of cell with nuclear Arc immunostaining above 2σ threshold: 13.3%

## C/C=C1\[C@H]2C=C(C)C[C@]1(N)c1ccc(=O)[nH]c1C2 [Huperzine A]
[1]
  Percentage of cell with nuclear Arc immunostaining above 2σ threshold: 14.8%

## COc1cc2c(cc1OC)C1CC(=O)C(CC(C)C)CN1CC2 (centres unmarked) [Tetrabenazine]
[1]
  Percentage of cell with nuclear Arc immunostaining above 2σ threshold: 24.9%
[2]
  Fold-change — Normalized to DMSO control (BDNF): 1.3 fold

## C#CCN[C@@H]1CCc2ccccc21 [Rasagiline]
[1]
  Percentage of cell with nuclear Arc immunostaining above 2σ threshold: 14.8%

## CN(C)CCC=C1c2ccccc2C=Cc2ccccc21 [Cyclobenzaprine]
[1]
  Percentage of cell with nuclear Arc immunostaining above 2σ threshold: 14.1%

## CN1CCCC(CC2c3ccccc3Sc3ccccc32)C1 (centres unmarked) [Metixene]
[3]
  Percentage of cell with nuclear Arc immunostaining above 2σ threshold: 6.7%

## OCCCCC#Cc1cncc(OC[C@@H]2CCN2)c1 [Sazetidine A]
  Percentage of cell with nuclear Arc immunostaining above 2σ threshold: 35.2%
[2]
  Fold-change — Normalized to DMSO control (BDNF): 1.8 fold

## COc1cc2c(cc1OC)[C@@H]1Cc3ccc(OC)c(OC)c3CN1CC2 [Rotundine]
[1]
  Percentage of cell with nuclear Arc immunostaining above 2σ threshold: 28.7%
[2]
  Fold-change — Normalized to DMSO control (BDNF): 1.5 fold

## CC(NC(C)(C)C)C(=O)c1cccc(Cl)c1 (centres unmarked) [Bupropion]
[3]
  Percentage of cell with nuclear Arc immunostaining above 2σ threshold: 9.0%

## COc1ccc2cc3[n+](cc2c1OC)CCc1cc2c(cc1-3)OCO2 [Berberine]
[3]
  Percentage of cell with nuclear Arc immunostaining above 2σ threshold: 2.2%

## Nc1c2c(nc3ccccc13)CCCC2O (centres unmarked) [Hydroxytacrine]
[1]
  Percentage of cell with nuclear Arc immunostaining above 2σ threshold: 36.9%
[2]
  Fold-change — Normalized to DMSO control (BDNF): 1.9 fold

## Cc1ccc(C23CNCC2C3)cc1 (centres unmarked) [Bicifadine]
[3]
  Percentage of cell with nuclear Arc immunostaining above 2σ threshold: 7.2%

## Oc1ccc(/C=C/c2cc(O)cc(O)c2)cc1 [Resveratrol]
[1]
  Percentage of cell with nuclear Arc immunostaining above 2σ threshold: 36.0%
[2]
  Fold-change — Normalized to DMSO control (BDNF): 1.8 fold

## CC[N+](CC)(CCNC(=O)C(=O)NCC[N+](CC)(CC)Cc1ccccc1Cl)Cc1ccccc1Cl [Ambenonium]
  Percentage of cell with nuclear Arc immunostaining above 2σ threshold: 15.1%

## O=C(CCCCCCC(=O)Nc1ccccc1)NO [Vorinostat]
[1]
  Percentage of cell with nuclear Arc immunostaining above 2σ threshold: 19.8%
[2]
  Fold-change — Normalized to DMSO control (BDNF): 1.0 fold

## COc1ccc2c3c1O[C@H]1C[C@@H](O)C=C[C@@]31CCN(C)C2 [Galantamine]
  Percentage of cell with nuclear Arc immunostaining above 2σ threshold: 4.2%

## O=C1[C@@H]2[C@H]3CC[C@H](C3)[C@@H]2C(=O)N1C[C@@H]1CCCC[C@H]1CN1CCN(c2nsc3ccccc23)CC1 [Lurasidone]
[1]
  Percentage of cell with nuclear Arc immunostaining above 2σ threshold: 39.0%
[2]
  Fold-change — Normalized to DMSO control (BDNF): 2.0 fold

## OCCOCCN1CCN(C(c2ccccc2)c2ccc(Cl)cc2)CC1 (centres unmarked) [Hydroxyzine dihydrochloride]
[1]
  Percentage of cell with nuclear Arc immunostaining above 2σ threshold: 27.2%
[2]
  Fold-change — Normalized to DMSO control (BDNF): 1.4 fold

## CHIR-98014
  Fold-change — Normalized to DMSO control (BDNF): -1.0 fold
  Percentage of cell with nuclear Arc immunostaining above 2σ threshold: 19.2%

## C[C@]12COC(=O)C[C@@H]1CC[C@@H]1[C@@H]2CC[C@@]2(C)[C@H]1CC[C@]2(C)O [Oxandrolone]
  Percentage of cell with nuclear Arc immunostaining above 2σ threshold: 33.5%
[2]
  Fold-change — Normalized to DMSO control (BDNF): 1.7 fold

## C[C@@H]1C(=O)O[C@H]2C[C@@]34[C@H]5C[C@@H](C(C)(C)C)[C@]36[C@@H](OC(=O)[C@@H]6O)O[C@@]4(C(=O)O5)[C@]21O [Ginkgolide A]
[1]
  Percentage of cell with nuclear Arc immunostaining above 2σ threshold: 19.3%

## O=c1cc(-c2ccc(O)c(O)c2)oc2cc(O)cc(O)c12 [Luteolin]
[1]
  Percentage of cell with nuclear Arc immunostaining above 2σ threshold: 22.1%
[2]
  Fold-change — Normalized to DMSO control (BDNF): 1.1 fold

## CNCC[C@@H](Oc1ccccc1C)c1ccccc1 [Atomoxetine]
[1]
  Percentage of cell with nuclear Arc immunostaining above 2σ threshold: 17.6%

## COc1cccc([C@H](O)C2CCN(CCc3ccc(F)cc3)CC2)c1OC [Volinanserin]
[3]
  Percentage of cell with nuclear Arc immunostaining above 2σ threshold: 9.0%

## CCCn1cnc2c1c(=O)n(CCCCC(C)=O)c(=O)n2C [Propentofylline]
[1]
  Percentage of cell with nuclear Arc immunostaining above 2σ threshold: 33.4%
[2]
  Fold-change — Normalized to DMSO control (BDNF): 1.7 fold

## COc1ccc(CN(CCN(C)C)c2ccccn2)cc1 [Pyrilamine maleate]
[1]
  Percentage of cell with nuclear Arc immunostaining above 2σ threshold: 25.2%
[2]
  Fold-change — Normalized to DMSO control (BDNF): 1.3 fold

## CCN1CCN(c2cc(-c3ccc(F)cc3)c3c(n2)CCCCCC3)CC1 [Blonanserin]
[3]
  Percentage of cell with nuclear Arc immunostaining above 2σ threshold: 10.9%

## CCOC(=O)C1=C[C@]2(CC)CCCN3CCc4c(n1c1ccccc41)[C@@H]32 [Vinpocetine]
[1]
  Percentage of cell with nuclear Arc immunostaining above 2σ threshold: 12.5%

## Nc1cccc(-c2cc3c(Oc4cccc(O)c4)ncnc3[nH]2)c1 [TWS119]
[1]
  Percentage of cell with nuclear Arc immunostaining above 2σ threshold: 33.9%
[2]
  Fold-change — Normalized to DMSO control (BDNF): 1.7 fold

## CCN[C@H]1C[C@H](C)S(=O)(=O)c2sc(S(N)(=O)=O)cc21 [Dorzolamide]
[3]
  Percentage of cell with nuclear Arc immunostaining above 2σ threshold: 7.1%

## CSc1ccc2c(c1)N(CCC1CCCCN1C)c1ccccc1S2 (centres unmarked) [Thioridazine]
[3]
  Percentage of cell with nuclear Arc immunostaining above 2σ threshold: 0.0%

## CN(C)CCCC1(c2ccc(F)cc2)OCc2cc(C#N)ccc21 (centres unmarked) [Citalopram]
[3]
  Percentage of cell with nuclear Arc immunostaining above 2σ threshold: 6.1%

## Cn1c(=O)c2[nH]cnc2n(C)c1=O [Aminophylline]
[1]
  Percentage of cell with nuclear Arc immunostaining above 2σ threshold: 23.1%
[2]
  Fold-change — Normalized to DMSO control (BDNF): 1.2 fold

## Cc1nc2n(c(=O)c1CCN1CCC(c3noc4cc(F)ccc34)CC1)CCCC2O (centres unmarked) [Paliperidone]
[1]
  Percentage of cell with nuclear Arc immunostaining above 2σ threshold: 15.2%

## C=C[C@@]1(C)CC(=O)[C@]2(O)[C@@]3(C)[C@@H](O)CCC(C)(C)[C@@H]3[C@H](O)[C@H](OC(C)=O)[C@@]2(C)O1 [Forskolin]
[1]
  Percentage of cell with nuclear Arc immunostaining above 2σ threshold: 29.3%
[2]
  Fold-change — Normalized to DMSO control (BDNF): 1.5 fold

## CN(C)CCOC(=O)COc1ccc(Cl)cc1.Cl [Meclofenoxate hydrochloride]
  Percentage of cell with nuclear Arc immunostaining above 2σ threshold: 28.2%
[2]
  Fold-change — Normalized to DMSO control (BDNF): 1.4 fold

## CNCCCN1c2ccccc2CCc2ccccc21 [Desipramine]
[3]
  Percentage of cell with nuclear Arc immunostaining above 2σ threshold: 11.3%

## CCN(CC)CCNC(=O)c1cc(S(C)(=O)=O)ccc1OC [Tiapride hydrochloride]
[1]
  Percentage of cell with nuclear Arc immunostaining above 2σ threshold: 20.9%
[2]
  Fold-change — Normalized to DMSO control (BDNF): 1.1 fold

## CCOC(=O)[C@H](CCc1ccccc1)N[C@@H](C)C(=O)N1CCC[C@H]1C(=O)O [Enalapril]
[1]
  Percentage of cell with nuclear Arc immunostaining above 2σ threshold: 22.4%
[2]
  Fold-change — Normalized to DMSO control (BDNF): 1.1 fold

Reference: paper PMC5698418 (Nature Communications, 2017)
